Assay results published in patent US10980764B1, “Exogenous ketone supplements for reducing anxiety-related behavior” (priority 2016, dated 2021).

Columns and labels:
[1] = Blood βHB and glucose compared between the two animal models, Study 3; format: in vivo, rat; settings: after sub-chronic ketone supplementation (7 days; ~2.5 vs ~5 g/kg b.w./day)
Excerpt: Results were considered significant when p<0.05.

[2] = test system: WAG/Rij rats; assay: EPM after 7 days oral gavage, WAG/Rij rats, Study 3; format: in vivo, rat; settings: 7 days gavage ~2.5 g/kg b.w./day
Method: Generally, exogenous ketone supplementation was tested by adding to food and feeding chronically for 83 days in SPD rats and administering sub-chronically for 7 days in both rat models by daily intragastric gavage bolus, followed by assessment of anxiety measures on EPM. The groups included standard diet (SD) or SD+ketone supplementation.
EPM (Coulbourn Instruments) was used to assess anxiety-related behavior of the rats after 83 days of chronic feeding or after 7 days of oral gavage. EPM experiments were carried out under non-stress conditions (in dimly lit and quiet room) between 12.00 and 14.00 hours.
The rats were transferred in their home cage to the experimental room 30 min prior to beginning the experiment. Briefly, rats were placed in the intersection of the four arms of the EPM, facing the open arm opposite to where the experimenter was and their behavior was recorded for 5 minutes. The amount of time spent and number of entries made on the open arms, closed arms and the center zones were video recorded. Latency to entry into the closed arms and the distance travelled in each zones was also measured in chronically treated SPD rats. […] At the end of the 5-minute test, the rats were removed from the maze and placed back into their home cage. The maze was cleaned with 70% alcohol and after it with tap water and dried with paper towel between rats. […]

SMILES: CC(=O)CC(=O)OCCC(C)OC(=O)CC(C)=O (stereo not drawn) [KE, 1,3-butanediol-acetoacetate diester]
- βHB levels in WAG/Rij rats compared to SPD rats [1]: Higher
- Entries to open arms ([2]; compared to control): less entries
- Time spent in the center ([2]; compared to control (SD)): more time
